Each structure is given as a SMILES string.

The source of these data is patent publication US20160287589A1, “SUBSTITUTED-IMIDAZOPYRIDAZINES” (BAYER PHARMA AKTIENGESELLSCHAFT, priority 2013, published 2016).

The target in assay [1] is T1, MKNK1 (Homo sapiens, UniProt Q9BUB5, T385D).
T1 construct: GST (N); purchased Carna Biosciences 02-145; host or cells: insect cells (baculovirus expression system)
Description: MKNK1 kinase high ATP assay (TR-FRET-based). Conditions: Table 2c; 2 mM ATP, 15 min preincubation. The class given is biochemical. The gist of the method: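 TR-FRET read-out (anti-phospho-S6 Ser236 antibody, Eu/XL665) of biotin-peptide phosphorylation (0.06 μM) at high ATP (2 mM final). Enzyme was GST-MKNK1 full length, T344D, pre-bound to compound for 15 min before a 30 min reaction at 22 °C, pH 7.5. Inhibition scaled between no-inhibitor (0%) and no-enzyme (100%) wells.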

The target of assay [2] is T1, MKNK1. Description: MKNK1 kinase assay (MKNK1 TR-FRET assay). Type of assay: biochemical. Conditions: Table 1c; 10 μM ATP, 15 min preincubation.

T1 sequence (Q9BUB5 1-424 isoform Q9BUB5-2 T344D): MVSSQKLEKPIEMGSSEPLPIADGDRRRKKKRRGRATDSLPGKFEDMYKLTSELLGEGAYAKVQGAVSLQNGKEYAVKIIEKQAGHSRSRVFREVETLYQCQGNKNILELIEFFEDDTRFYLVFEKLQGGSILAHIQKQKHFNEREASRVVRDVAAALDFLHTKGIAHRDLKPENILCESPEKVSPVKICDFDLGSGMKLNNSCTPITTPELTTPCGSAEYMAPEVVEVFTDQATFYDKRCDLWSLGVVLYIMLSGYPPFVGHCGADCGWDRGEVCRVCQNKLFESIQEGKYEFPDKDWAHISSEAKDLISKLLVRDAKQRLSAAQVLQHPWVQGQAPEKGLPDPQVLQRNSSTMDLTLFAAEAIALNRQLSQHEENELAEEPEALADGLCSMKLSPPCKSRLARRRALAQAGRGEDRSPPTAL

Turning to `CC(C)(C)[Si](C)(C)OC[C@H]1CCCN1c1nccc2oc(-c3cnc4ccc(OC[C@H]5CCC(=O)N5)nn34)cc12` [III-66, (5R)-5-{[(3-{4-[(2R)-2-({[tert-Butyl(dimethyl)silyl]oxy}methyl)pyrrolidin-1-yl]furo[3,2-c]pyridin-2-yl}imidazo[1,2-b]pyridazin-6-yl)oxy]methyl}pyrrolidin-2-one], the IC50 at MKNK1 [1] worked out at 8.5 nM; against MKNK1 [2] it was 4.2 nM.
`O=C1CC[C@H](COc2ccc3ncc(-c4cc5c(N6CCC[C@@H]6CO)nccc5o4)n3n2)N1` [III-67, (5R)-5-{[(3-{4-[(2R)-2-(Hydroxymethyl)pyrrolidin-1-yl]furo[3,2-c]pyridin-2-yl}imidazo[1,2-b]pyridazin-6-yl)oxy]methyl}pyrrolidin-2-one]: the IC50 was determined as 11 nM at MKNK1 [1] and 10.7 nM on MKNK1 [2].
As for `O=C1CC[C@H](COc2ccc3ncc(-c4cc5c(N6CCOCC6)nccc5o4)n3n2)N1` [III-68, (5R)-5-[({3-[4-(Morpholin-4-yl)furo[3,2-c]pyridin-2-yl]imidazo[1,2-b]pyridazin-6-yl}oxy)methyl]pyrrolidin-2-one], the IC50 against MKNK1 [1] was 0.7 nM; against MKNK1 [2], 0.5 nM.
The corresponding values for `CCN(CCOC)c1nccc2oc(-c3cnc4ccc(OC[C@H]5CCC(=O)N5)nn34)cc12` [III-69, (5R)-5-{[(3-{4-[Ethyl(2-methoxyethyl)amino]furo[3,2-c]pyridin-2-yl}imidazo[1,2-b]pyridazin-6-yl)oxy]methyl}pyrrolidin-2-one] are 0.1 nM and 0.4 nM.
With `CC(C)(C)OC(=O)N1CCN(c2nccc3oc(-c4cnc5ccc(OC[C@H]6CCC(=O)N6)nn45)cc23)CC1` [III-70, tert-Butyl 4-[2-(6-{[(2R)-5-oxopyrrolidin-2-yl]methoxy}imidazo[1,2-b]pyridazin-3-yl)furo[3,2-c]pyridin-4-yl]piperazine-1-carboxylate], the IC50 came to 13.5 nM against MKNK1 [1] and 4.8 nM on MKNK1 [2].
The corresponding values for `O=C1CC[C@H](COc2ccc3ncc(-c4cc5c(N6CCNCC6)nccc5o4)n3n2)N1` [III-71, (5R)-5-[({3-[4-(Piperazin-1-yl)furo[3,2-c]pyridin-2-yl]imidazo[1,2-b]pyridazin-6-yl}oxy)methyl]pyrrolidin-2-one] are 1.4 nM and 2 nM.
As for `C[C@@H]1CN(c2nccc3oc(-c4cnc5ccc(OC[C@H]6CCC(=O)N6)nn45)cc23)C[C@H](C)O1` [III-72, (5R)-5-{[(3-{4-[(2R,6S)-2,6-Dimethylmorpholin-4-yl]furo[3,2-c]pyridin-2-yl}imidazo[1,2-b]pyridazin-6-yl)oxy]methyl}pyrrolidin-2-one], the IC50 is 2 nM at MKNK1 [1] and 1 nM against MKNK1 [2].
For `CN(CCCO)c1nccc2oc(-c3cnc4ccc(OC[C@H]5CCC(=O)N5)nn34)cc12` [III-73, (5R)-5-{[(3-{4-[(3-Hydroxypropyl)(methyl)amino]furo[3,2-c]pyridin-2-yl}imidazo[1,2-b]pyridazin-6-yl)oxy]methyl}pyrrolidin-2-one], the IC50 against MKNK1 [1] was 0.8 nM; against MKNK1 [2], 0.6 nM.
`CN(C)C1CCN(c2nccc3oc(-c4cnc5ccc(OC[C@H]6CCC(=O)N6)nn45)cc23)CC1` [III-74, (5R)-5-{[(3-{4-[4-(Dimethylamino)piperidin-1-yl]furo[3,2-c]pyridin-2-yl}imidazo[1,2-b]pyridazin-6-yl)oxy]methyl}pyrrolidin-2-one]: the IC50 is 1.5 nM at MKNK1 [1] and 1 nM against MKNK1 [2].
On to `CN(C)[C@H]1CCN(c2nccc3oc(-c4cnc5ccc(OC[C@H]6CCC(=O)N6)nn45)cc23)C1` [III-75, (5R)-5-{[(3-{4-[(3S)-3-(Dimethylamino)pyrrolidin-1-yl]furo[3,2-c]pyridin-2-yl}imidazo[1,2-b]pyridazin-6-yl)oxy]methyl}pyrrolidin-2-one], for which the IC50 came out at 1.7 nM against MKNK1 [1] and 0.8 nM against MKNK1 [2].
